Test [1] deals with prolow-density lipoprotein-related protein 1. Conditions: DHT with WD vs WD alone. How it is done:
(§1) FIG. 1A depicts a representative illustration of the experimental system used to study the effects of DHT on metabolism. Mice were fed with a Western diet (WD). At 45 days of age, one group of mice were administered DHT via pellet at Week 0 and at Week 4-5 (WD+DHT). One group of WD fed mice were not administered with DHT (WD). Mice were euthanized at Week 8. Ex vivo lipolysis, histology and molecular studies were performed.

Test [2] concerns female mice fed with a Western diet. How it is done: as §1
The subject of a further test is regucalcin. As to conditions: WD+DHT vs WD mice. Here is the method:
as §1

In another test the test system is mice fed with WD. Conditions: WD 8 weeks then DHT 3 weeks under WD vs WD alone 11 weeks; FIG. 5.

Molecules are shown by their SMILES.

For the compound `C[C@]12CCC(=O)C[C@@H]1CC[C@@H]1[C@@H]2CC[C@]2(C)[C@@H](O)CC[C@@H]12` [DHT, dihydrotestosterone], in test [1], the “prolow-density lipoprotein-related protein 1 in liver” value is given as “significantly altered”. The “brown adipose cell size (histology)” value in test [2] (DHT with WD mice) is “enlarged”. Also, the “triglyceride (TG) in circulation” value in test [2] (WD+DHT vs WD mice) is on record as “Significantly elevated levels”. Also, in test [2] (WD+DHT vs WD mice, FIG. 1C), the “fat in liver (liver images)” value is reported as “lower levels of fat”. Further, the liver triglyceride level entry in test [2] (WD+DHT vs WD mice, FIG. 2A) was “lower levels”. Moreover, in test [2] (WD+DHT vs WD mice, FIG. 2B), the liver cholesterol level entry is “lower levels”. The “liver lipid deposition (oil red and H&E staining, histology)” value in test [2] (WD+DHT vs WD mice, FIG. 4) is reported as “decreased lipid deposition”. The glucose tolerance result in test [2] (at 3 weeks, DHT with WD vs WD alone, adult female mice) was “more impaired glucose intolerance”. The pyruvate tolerance entry in test [2] (at 6-7 weeks, DHT with WD vs WD alone, adult female mice) was “more impaired pyruvate tolerance”. Besides, in the test on regucalcin, the regucalcin in liver entry is “significantly altered”. In the test with mice fed with WD, the liver triglyceride entry is reported as “lower triglyceride”.
